Experimental findings from patent US8389679B2, “Targeted antimicrobial moieties” (priority 2009, dated 2013) are described below.

Entries after “also recorded” stand apart in the source; their conditions may differ. Where two headings read alike, the source gives them in different places. Where a SMILES comes first, the peptide text is derived from it. Where no end group is shown, it is not given here.

Assay [1] has as its system S. mutans.
The subject of assay [2] is target microorganisms. The assay is described as follows: Screen of synthesized peptides for binding to target microorganisms (targeting peptides, Tables 2 and 3). The conditions noted are these: microorganism(s) the targeting peptide was identified as binding to (Table 3). As to the method:
Once noted, these peptides were batch synthesized on a multiplex peptide synthesizer, yielding 5-10 mg of each peptide that could readily be screened for biological activity (e.g., binding activity and/or antimicrobial activity.
Other suitable targeting peptides include the peptides that have been identified as binding to particular target organisms as shown in Table 3 and/or Table 4.

[3] abbreviates: Library 2 STAMPs, all S. mutans isolates tested, minimum of three independent trials.

For the molecule “FHLHFHFGGGFRHIFHKIF-NH2 [135i(L1)2_1i, FHLHFHFGGGFRHIFHKIF]”, the “S. mutans (MIC)” value in assay [1] was 16 µg/mL.
Turning to `CC[C@H](C)[C@H](NC(=O)[C@H](Cc1ccccc1)NC(=O)CNC(=O)CNC(=O)CNC(=O)[C@H](Cc1ccccc1)NC(=O)[C@H](Cc1c[nH]cn1)NC(=O)[C@H](CC(C)C)NC(=O)[C@H](Cc1c[nH]cn1)NC(=O)[C@H](Cc1ccccc1)NC(=O)[C@H](Cc1c[nH]cn1)NC(=O)[C@H](Cc1ccccc1)NC(=O)c1ccccc1)C(=O)N[C@@H](CCCCN)C(=O)N[C@@H](Cc1c[nH]cn1)C(=O)N[C@@H](Cc1ccccc1)C(=O)N[C@H](C(=O)N[C@@H](Cc1c[nH]cn1)C(=O)N[C@@H](CCCNC(=N)N)C(=O)N[C@@H](Cc1ccccc1)C(N)=O)[C@@H](C)CC` [bz135(L1)2_1, benzoate-FHFHLHFGGGFIKHFIHRF] (HELM PEPTIDE1{[O=C(c1ccccc1)[*:2]].F.H.F.H.L.H.F.G.G.G.F.I.K.H.F.I.H.R.F.[am]}$$$$V2.0), the “S. mutans (MIC)” value in assay [1] (setting [3]) amounted to 32 µg/mL.
Same read-out and setting: the same measure for “FHFHLHFSGSFIKHFIHRF-NH2 [135(L11)2_1, FHFHLHFSGSFIKHFIHRF]”: 32 µg/mL.
As to “Ac-FHFHLHFGGGFIKHFIHRF-NH2 [Ac135(L1)2_1, Ac-FHFHLHFGGGFIKHFIHRF]”, in assay [1], the “S. mutans (MIC)” value is 32 µg/mL.
Same read-out and setting: the result for FHFHLHFGAGAGFIKHFIHRF-NH2 [135(L14)2_1] reads 32 µg/mL; that for “FHFHLHFGGGGGGGFIKHFIHRF-NH2 [135(G7)2_1]”, 32 µg/mL.
In the case of “1T-120 (DVRDRVDLAGADLCAAHATR; synthetic novel tartgeting peptide IT-120)”, the “Target(s)” value in assay [2] is “A. naeslundii, F. nucleatum,; also recorded: P. gingivalis; also recorded: S. epidermidis,; also recorded: S. gordonii, S. mitis, S. mutans,; also recorded: S. oralis, S. salivarious,; also recorded: S. sanguinis”.
Same read-out and setting: the same measure for “1T-48 (KLQVHHGRATHTLLLQPPLCAPGTIR; synthetic novel tartgeting peptide IT-48)”: “S. aureus; also recorded: S. epidermidis; also recorded: C. jeikeium; also recorded: C. xerosis; also recorded: C. striatum; also recorded: P. aeruginosa”; for “1T-6 (KFINGVLSQFVLERK; synthetic novel tartgeting peptide IT-6)”: “S. mutans”; for “1T-19 (PGAFRNPQMPRG; synthetic novel tartgeting peptide IT-19)”: “S. aureus; also recorded: S. epidermidis; also recorded: P. aeruginosa”.
Same read-out and setting: the result for “1T-133 (YFIKDDNEALSKDWEVIGNDLKGTIDKYGKEFKVR; synthetic novel tartgeting peptide IT-133)” reads “A. naeslundii, P. gingivalis; also recorded: S. epidermidis,; also recorded: S. gordonii, S. mitis, S. mutans,; also recorded: S. oralis, S. salivarious,; also recorded: S. sanguinis”; that for “1T-67 (GQRQRLTCGRVSGCSEGPSREAAR; synthetic novel tartgeting peptide IT-67)”, “S. aureus; also recorded: S. epidermidis; also recorded: C. jeikeium; also recorded: C. xerosis; also recorded: C. striatum; also recorded: P. aeruginosa”.
The same measure, in the same setting: the same measure for “1T-138 (YPNEYCIFLENLSLEELKEIKAINGETLNLEEIINERKNLKD; synthetic novel tartgeting peptide IT-138)”: “A. naeslundii, F. nucleatum,; also recorded: P. gingivalis; also recorded: S. epidermidis,; also recorded: S. gordonii, S. mitis, S. mutans,; also recorded: S. oralis, S. salivarious,; also recorded: S. sanguinis”; for “1T-25 (VGLDVSVLVLFFGLQLLSVLLGAMIR; synthetic novel tartgeting peptide IT-25)”: “S. aureus; also recorded: S. epidermidis; also recorded: C. xerosis; also recorded: C. striatum; also recorded: P. aeruginosa”.
As for “1T-75 (GVARGLQLGIKTRTQWGAATGAA; synthetic novel tartgeting peptide IT-75)”, in assay [2], the “Target(s)” value is reported as “S. pneumoniae”.
The same measure, in the same setting: the same measure for “1T-157 (RRFRKTTENREKSKNKKAVLGLSTTSTASY; synthetic novel tartgeting peptide IT-157)”: “A. naeslundii, F. nucleatum,; also recorded: P. gingivalis,; also recorded: T. denticolaS. gordonii,; also recorded: S. mitis, S. mutans, S. oralis,; also recorded: S. salivarious, S. sanguinis”.
